Source: patent publication US7297693B2, “Nitrogen-containing heterocyclic compounds and their use as Raf inhibitors” (SmithKline Beecham P.L.C., priority 2001, dated 2007)

Tests used:
[1] = system: colon carcinoma (Colo 205); assay: Methylene blue growth inhibition assay (Assay 2), Colo205; assay type: cell-based; conditions: Homo sapiens, COLO 205, 72 h; Colorectal cancer; B-Raf V599E, Ras wt; Assay 2, 3 days
Protocol: (§1) Methylene Blue Growth Inhibition Assay (Assay 2)
(§2) Normal human foreskin fibroblasts (HFF), human melanoma (A375P, SKMEL2, SKMEL3) colon carcinoma (Colo 205) were cultured in the following growth media: A375P, Colo 205, Roswell Park Memorial Institute (RPMI) 1640 (Life Technologies 22400-089) containing 10% fetal bovine serum (FBS); HFF, Dulbecco's modified Eagle Medium (DMEM) (Life Technologies 12320-032) containing 10% FBS; SKMEL2 and SKMEL3, Minimum Essential Medium (MEM, Life Technologies 11095-080) containing 1× non-essential amino acids (Life Technologies 11140-050) and 10% FBS. Cells were harvested using 0.25% trypsin/1 mM, EDTA, counted using a haemocytometer, and plated in […] of the appropriate media, at the following densities, in a 96-well tissue culture plate (Falcon 3075): […] and A375P, 5,000 cells/well; all other cell lines, 10,000 cells/well. The next day, compounds were diluted in RPMI containing 100 micrograms/ml gentamicin, at twice the final required concentration, from 10 mM stock solutions in dimethyl sulphoxide (DMSO). One hundred microliters per well of these dilutions were added to the 100 microliters of media currently on the cell plates. RPMI containing 0.6% DMSO was added to control wells. […] Optical density at 620 nm was measured on a microplate reader. Percent inhibition of cell growth was calculated relative to vehicle treated control wells. […]

[2] = system: human melanoma SKMEL3; assay: Methylene blue growth inhibition assay (Assay 2), SKMEL3; assay type: cell-based; conditions: SK-MEL3, 72 h, B-Raf V599E, Ras wt, Assay 2, 3 days
Protocol: as §1, §2

[3] = system: human melanoma SKMEL2; assay: Methylene blue growth inhibition assay (Assay 2), SKMEL2; assay type: cell-based; conditions: SK-MEL-2, 72 h, B-Raf wt, [Q61R]N-Ras, Assay 2, 3 days
Protocol: as §1, §2

[4] = target: B-Raf (Homo sapiens, UniProt P15056); assay: Fluorescence anisotropy kinase binding assay (Assay 1)
Description: Fluorescence Anisotropy Kinase Binding Assay
The concentration of kinase enzyme should preferably be ≧1×Kf. The concentration of fluorescent ligand required will depend on the instrumentation used, and the fluorescent and physicochemical properties. The concentration used must be lower than the concentration of kinase enzyme, and preferably less than half the kinase enzyme concentration. A typical protocol is:
All compounds are serially diluted in DMSO, then by a one step dilution into buffer of comparison, 50 mM HEPES, […] pH7.5, 1 mM CHAPS, 10 mM MgCL2, for the assay.
B-Raf Enzyme concentration: 1 nM
Fluorescent ligand concentration: 0.5 nM
Test compound concentration: 0.5 nM-100 uM
Components incubated in 10 ul final volume in LJL HE 384 type B black microtitre plate until equilibrium reached (Over 3 h, up to 30 h)
Fluorescence anisotropy read in an LJL Acquest fluorescence reader.
• Ki=dissociation constant for inhibitor binding • Kf=dissociation constant for fluorescent ligand binding
The fluorescent ligand is the following compound:
which is derived from 5-[2-(4-aminomethylphenyl)-5-pyridin-4-yl-1H-imidazol-4-yl]-2-chlorophenol and rhodamine green.

[5] = system: human colon carcinoma (Colo 201) cells; assay: XTT 72 hr growth inhibition (Assay 3), Colo201; assay type: cell-based; conditions: Colorectal cancer, B-Raf ND, Ras ND, Assay 3, 72 hr
Protocol: XTT 72 hr Growth Inhibition Protocol for Mammalian Cultured Cells (Assay 3)
Human diploid foreskin fibroblasts (HFF) or human colon carcinoma (Colo 201) cells were grown in Dulbecco's modified Eagle's medium (DMEM) (Invitrogen/Life Technologies) containing 10% fetal bovine serum (FBS) and the antibiotics penicillin (100 Units/ml) and streotomycin (100 micrograms/ml) (Invitrogen/Life Technologies). Growth was at 37° C. in humidified 5% CO2 incubators in 75 cm^2 plastic flasks. Cells were harvested using 0.25% trypsin/1 mM ethylenediaminetetraacetic acid (EDTA), resuspended in growth medium, and counted using a hemocytometer. Flat-bottomed 96-well plates were seeded with 2×10^3 cells/well in a volume of 200 ul from trypsinized exponentially growing cultures. To “blank” wells, growth medium was added with no additions. Cells were incubated overnight to permit attachment.
Next day, medium from wells that contained cells was replaced with 180 microliters of fresh medium. Appropriate dilutions of test compounds were added to the wells from stock soloutions of compound dissolved in dimethyl sulfoxide (DMSO); final DMSO concentration in all wells was 0.2%. […] Absorbance at 450 nm was then determined using a 96-well UV plate reader (Molecular Devices). Under these conditions, absorbance of untreated control cells at 450 nm was at least 1.0 optical density unit/ml. […]

[6] = system: Normal human foreskin fibroblasts (HFF); assay: Methylene blue growth inhibition assay (Assay 2), HFF; assay type: cell-based; conditions: Fibroblast, 72 h, B-Raf wt, Ras wt, Assay 2, 3 days
Protocol: as §1, §2

[7] = system: human melanoma A375P; assay: Methylene blue growth inhibition assay (Assay 2), A375P; assay type: cell-based; conditions: 72 h, B-Raf V599E, Ras wt, Assay 2, 3 days
Protocol: as §1, §2

B-Raf, sequence (P15056 whole entry): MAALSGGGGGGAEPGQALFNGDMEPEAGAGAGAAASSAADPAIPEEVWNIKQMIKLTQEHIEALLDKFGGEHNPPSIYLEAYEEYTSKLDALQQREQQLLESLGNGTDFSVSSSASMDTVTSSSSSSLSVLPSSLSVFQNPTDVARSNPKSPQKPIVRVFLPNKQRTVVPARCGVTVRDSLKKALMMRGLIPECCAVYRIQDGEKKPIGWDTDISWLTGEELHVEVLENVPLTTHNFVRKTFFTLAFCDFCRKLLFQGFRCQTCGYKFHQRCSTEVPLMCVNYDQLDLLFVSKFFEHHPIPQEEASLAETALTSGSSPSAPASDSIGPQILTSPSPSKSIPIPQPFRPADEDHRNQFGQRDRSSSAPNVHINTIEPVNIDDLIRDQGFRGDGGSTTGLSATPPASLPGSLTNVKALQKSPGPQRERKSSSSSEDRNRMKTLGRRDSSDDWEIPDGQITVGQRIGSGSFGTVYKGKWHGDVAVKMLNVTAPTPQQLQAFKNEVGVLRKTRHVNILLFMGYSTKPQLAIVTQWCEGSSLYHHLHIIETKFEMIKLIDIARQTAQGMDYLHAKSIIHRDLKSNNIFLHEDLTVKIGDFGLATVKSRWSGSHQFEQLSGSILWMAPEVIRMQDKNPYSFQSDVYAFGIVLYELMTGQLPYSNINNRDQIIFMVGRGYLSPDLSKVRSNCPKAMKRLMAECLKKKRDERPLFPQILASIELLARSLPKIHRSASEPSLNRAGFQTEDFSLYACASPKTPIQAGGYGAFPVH

IC50 [1]: 320 nM
IC50 [2]: 460 nM
IC50 [3]: 1900 nM
Kd [4]: 0.4 nM
IC50 [5]: 800 nM
IC50 [7]: 310 nM
SMILES: O=C(c1cc(-c2ccc3c(c2)CCC3=NO)c(-c2ccncc2)o1)N1CCC(N2CCCC2)CC1 [Example 20, 5-{2-Pyridin-4-yl-5-[1-(4-pyrrolidin-1-yl-piperidin-1-yl)-methanoyl}-furan-3-yl}-indan-1-one oxime]
IC50 [6]: > 30000 nM
